Legend:
[1] = Equilibrium humidity evaluation 75% RH/40° C., 10 days (Example 8, Experiment 6); type: physicochemical
Protocol: The experimental procedure that accompany this experiment is provided in Section G.ii.
All forms were maintained under constant equilibrium humidity (75% RH). XRPD, DSC, TGA, PLM and ^1H NMR analyses were performed on the absorbents at t=5 d and t=10 d, to confirm their physical fates and to determine the extent of residual solvent exchange or sequestration.
100 mg portions of Tabernanthalog salts ([…]) were placed in the relevant open vials. The powders were finely divided and distributed evenly over the base of the vial, such that equal material coverage across the panel was observed. These samples were then maintained 40° C. under 75% RH. The samples were sub-sampled at intervals of 5 and 10 days and analyzed by ^1H NMR, HPLC, XRPD, DSC, TGA and PLM, for evidence of phase change or chemical degradation.

[2] = Solubility determinations in SIF buffers FaSSIF, FeSSIF, FaSSGF (Example 8, Experiment 5)
Protocol: The temperature was maintained at 37° C. for 24 h. […] The suspensions were sampled at the relevant time points and centrifuged. The centrifuged pellets, obtained at the time points were analysed by XRPD as a wet pellet and dried, for evidence of form change.
The temperature was maintained at 37° C. for 24 h.
The suspension was sampled at the relevant time points and centrifuged. […] The centrifuged pellets, obtained at the time points were analyzed by XRPD as a wet pellet and dried, for evidence of form change.

[3] = type: physicochemical; details: salt screen, Experiment 2
Protocol: Tabernanthalog (native) (50 mg, 1 wt) was charged to a solution of the relevant counter ion (1.0 mol equivalence of counter ion) in ethanol (5.0 vol, 250 μl). The mixtures were warmed to 85° C. and small aliquots of water were added until dissolution occurred (Table 212 for additional charges of solvent). The solutions were cooled and allowed to stand undisturbed under sub-ambient conditions overnight (Table 211). […] Products were isolated via centrifugation. The corresponding pellets were sub-sampled and analyzed wet by XRPD; after which, they were dried at 40° C. under reduced pressure over 20 h and reanalyzed by XRPD. […] Once the crystallization experiments were completed, salt formation was confirmed by ^1H NMR, XRPD, DSC and TGA.

[4] = DVS analyses of sorbate salt Form A / Form C (Example 10); type: physicochemical; details: 0% to 90% to 0% RH
Excerpt: DVS analyses of Form A (Performed on batch reference: Experiment 11-Sample -A1) To determine whether Form A underwent form change at high % RH, DVS residues of Form A, from 0 to 80% RH and 0 to 90% RH, were examined. The specimens were equilibrated to constant mass, at 80% and 90% RH set-points, removed, placed in a capped vial, and analysed by XRPD and DSC. Based on the SC-XRD at 100 K, no regular voids in the crystal structure were large enough to accommodate non-crystal-bonded, molecular water with minimum probe radius of 1.4 Å.
The moisture sorption properties of the feed API were analysed by DVS Intrinsic instrument (Surface Measurement System). Approximately 20 to 50 mg of API was weighed onto an aluminium pan and loaded into the instrument equilibrated at 25° C. The sample was equilibrated under a dry atmosphere (0% relative humidity) for 60 minutes, before increasing the humidity from 0% to 30% at 5% step increment and from 30% to 90% at 10% step increment. A desorption cycle was also applied from 90% to 30% (10% step decrement) and from 30% to 0% (5% step decrement). A rate of change in mass per time unit (dm/dt) of 0.002%/min was set as the equilibrium parameter. Kinetic and isotherm graphs were calculated.
5. DVS Analyses: 0% to 90% DVS Mass Per Unit Time Equilibrated at Dm/Dt (0.0002%/Min)

[5] = input batch 3-B1, before SIF buffer

COc1ccc2c3c([nH]c2c1)CCN(C)CC3.O=C(O)/C=C/C(=O)O [Sample 6-A2]
Tabernanthalog RRT = 1.00 (trended HPLC data, chemical purity) ([1]; Fumarate salt, t = 10 d at 75% RH at 40° C.): 98.71

COc1ccc2c3c([nH]c2c1)CCN(C)CC3.O=C(O)c1ccccc1 [Sample 6-C1]
Tabernanthalog RRT = 1.00 (trended HPLC data, chemical purity) ([1]; Benzoate salt, t = 5 d at 75% RH at 40° C.): 98.36

COc1ccc2c3c([nH]c2c1)CCN(C)CC3.O=C(O)c1ccccc1 [Sample 16-C2]
Tabernanthalog RRT = 1.00 (trended HPLC data, chemical purity) ([1]; Benzoate salt, t = 10 d at 75% RH at 40° C.): 98.17

C/C=C/C=C/C(=O)O.COc1ccc2c3c([nH]c2c1)CCN(C)CC3 [Sample 6-D1]
Tabernanthalog RRT = 1.00 (trended HPLC data, chemical purity) ([1]; Sorbate salt, t = 5 d at 75% RH at 40° C.): 99.52

COc1ccc2c3c([nH]c2c1)CCN(C)CC3.O=C(O)/C=C/C(=O)O [Sample 6-A1]
Tabernanthalog RRT = 1.00 (trended HPLC data, chemical purity) ([1]; Fumarate salt, t = 5 d at 75% RH at 40° C.): 99.12

COc1ccc2c3c([nH]c2c1)CCN(C)CC3.O=C(O)C(O)C(O)C(=O)O [Sample 6-B2]
Tabernanthalog RRT = 1.00 (trended HPLC data, chemical purity) ([1]; Tartrate salt, t = 10 d at 75% RH at 40° C.): 98.82

COc1ccc2c3c([nH]c2c1)CCN(C)CC3.O=C(O)c1ccccc1 [Tabernanthalog · Benzoate]
Trended HPLC data, Tabernanthalog (RRT 1.00) [2, 5]: 99.23 % area
Trended HPLC data, peak at RRT 0.86 [2, 5]: 0.02 % area
Trended HPLC data, peak at RRT 0.89 [2, 5]: 0.04 % area
Trended HPLC data, peak at RRT 0.93 [2, 5]: 0.61 % area
Trended HPLC data, peak at RRT 1.09 [2, 5]: 0.08 % area
Trended HPLC data, peak at RRT 1.11 [2, 5]: 0.02 % area
Trended HPLC data, Tabernanthalog (RRT 1.00) ([2]; t = 1 h in FaSSGF): 99.33 % area
Trended HPLC data, peak at RRT 0.93 ([2]; t = 1 h in FaSSGF): 0.55 % area
Trended HPLC data, peak at RRT 1.09 ([2]; t = 1 h in FaSSGF): 0.07 % area
Trended HPLC data, peak at RRT 1.10 ([2]; t = 1 h in FaSSGF): 0.02 % area
Trended HPLC data, peak at RRT 1.11 ([2]; t = 1 h in FaSSGF): 0.03 % area
Trended HPLC data, Tabernanthalog (RRT 1.00) ([2]; t = 1 h in FaSSIF): 98.67 % area
Trended HPLC data, peak at RRT 0.93 ([2]; t = 1 h in FaSSIF): 0.92 % area
Trended HPLC data, peak at RRT 1.08 ([2]; t = 1 h in FaSSIF): 0.13 % area
Trended HPLC data, peak at RRT 1.11 ([2]; t = 1 h in FaSSIF): 0.28 % area
Trended HPLC data, Tabernanthalog (RRT 1.00) ([2]; t = 1 h in FeSSIF): 99.05 % area
Trended HPLC data, peak at RRT 0.93 ([2]; t = 1 h in FeSSIF): 0.84 % area
Trended HPLC data, peak at RRT 1.08 ([2]; t = 1 h in FeSSIF): 0.11 % area
Trended HPLC data, Tabernanthalog (RRT 1.00) ([2]; t = 3 h in FaSSGF): 99.34 % area
Trended HPLC data, peak at RRT 0.93 ([2]; t = 3 h in FaSSGF): 0.58 % area
Trended HPLC data, peak at RRT 1.09 ([2]; t = 3 h in FaSSGF): 0.07 % area
Trended HPLC data, Tabernanthalog (RRT 1.00) ([2]; t = 3 h in FaSSIF): 98.77 % area
Trended HPLC data, peak at RRT 0.93 ([2]; t = 3 h in FaSSIF): 1.04 % area
Trended HPLC data, peak at RRT 1.08 ([2]; t = 3 h in FaSSIF): 0.20 % area
Trended HPLC data, Tabernanthalog (RRT 1.00) ([2]; t = 3 h in FeSSIF): 99.03 % area
Trended HPLC data, peak at RRT 0.93 ([2]; t = 3 h in FeSSIF): 0.81 % area
Trended HPLC data, peak at RRT 1.08 ([2]; t = 3 h in FeSSIF): 0.10 % area
Trended HPLC data, peak at RRT 1.11 ([2]; t = 3 h in FeSSIF): 0.06 % area
Trended HPLC data, Tabernanthalog (RRT 1.00) ([2]; t = 6 h in FaSSGF): 99.33 % area
Trended HPLC data, peak at RRT 0.93 ([2]; t = 6 h in FaSSGF): 0.59 % area
Trended HPLC data, peak at RRT 1.09 ([2]; t = 6 h in FaSSGF): 0.08 % area
Trended HPLC data, Tabernanthalog (RRT 1.00) ([2]; t = 6 h in FaSSIF): 98.58 % area
Trended HPLC data, peak at RRT 0.93 ([2]; t = 6 h in FaSSIF): 1.26 % area
Trended HPLC data, peak at RRT 1.08 ([2]; t = 6 h in FaSSIF): 0.16 % area
Trended HPLC data, Tabernanthalog (RRT 1.00) ([2]; t = 6 h in FeSSIF): 98.69 % area
Trended HPLC data, peak at RRT 0.93 ([2]; t = 6 h in FeSSIF): 1.00 % area
Trended HPLC data, peak at RRT 1.08 ([2]; t = 6 h in FeSSIF): 0.15 % area
Trended HPLC data, peak at RRT 1.10 ([2]; t = 6 h in FeSSIF): 0.07 % area
Trended HPLC data, peak at RRT 1.11 ([2]; t = 6 h in FeSSIF): 0.09 % area
Trended HPLC data, Tabernanthalog (RRT 1.00) ([2]; t = 24 h in FaSSGF): 99.29 % area
Trended HPLC data, peak at RRT 0.93 ([2]; t = 24 h in FaSSGF): 0.63 % area
Trended HPLC data, peak at RRT 1.09 ([2]; t = 24 h in FaSSGF): 0.08 % area
Trended HPLC data, Tabernanthalog (RRT 1.00) ([2]; t = 24 h in FaSSIF): 98.01 % area
Trended HPLC data, peak at RRT 0.93 ([2]; t = 24 h in FaSSIF): 1.51 % area
Trended HPLC data, peak at RRT 1.08 ([2]; t = 24 h in FaSSIF): 0.24 % area
Trended HPLC data, peak at RRT 1.10 ([2]; t = 24 h in FaSSIF): 0.11 % area
Trended HPLC data, peak at RRT 1.11 ([2]; t = 24 h in FaSSIF): 0.13 % area
Trended HPLC data, Tabernanthalog (RRT 1.00) ([2]; t = 24 h in FeSSIF): 98.17 % area
Trended HPLC data, peak at RRT 0.89 ([2]; t = 24 h in FeSSIF): 0.15 % area
Trended HPLC data, peak at RRT 0.93 ([2]; t = 24 h in FeSSIF): 1.36 % area
Trended HPLC data, peak at RRT 1.08 ([2]; t = 24 h in FeSSIF): 0.19 % area
Trended HPLC data, peak at RRT 1.10 ([2]; t = 24 h in FeSSIF): 0.13 % area
Discrete melt (DSC)? [3]: ✓
Flat baseline (DSC)? [3]: ✓
Flat baseline pre-melt (TGA)? [3]: ✓
Unique XRPD? [3]: ✓

COc1ccc2c3c([nH]c2c1)CCN(C)CC3.O=C(O)/C=C/C(=O)O [8-A4 of Example 5]
Tabernanthalog RRT = 1.00 (trended HPLC data, chemical purity) ([1]; Fumarate salt, input before humidity exposure): 99.04

COc1ccc2c3c([nH]c2c1)CCN(C)CC3.O=C(O)C(O)C(O)C(=O)O [Sample 6-B1]
Tabernanthalog RRT = 1.00 (trended HPLC data, chemical purity) ([1]; Tartrate salt, t = 5 d at 75% RH at 40° C.): 98.86

C/C=C/C=C/C(=O)O.COc1ccc2c3c([nH]c2c1)CCN(C)CC3.O [Form C (Pattern #2)]
form change during DVS [4]: reverted to Form A on the desorption cycle

C/C=C/C=C/C(=O)O.COc1ccc2c3c([nH]c2c1)CCN(C)CC3 [Sample 6-D2]
Tabernanthalog RRT = 1.00 (trended HPLC data, chemical purity) ([1]; Sorbate salt, t = 10 d at 75% RH at 40° C.): 99.70
